Data from PubChem BioAssay AID192 (DTP/NCI, 2004).
Values joined by “and” are separate entries in the source; they are usually repeats but may differ in a detail not shown here. Equal entries are not always repeated. Toxic doses and inconclusive results are not listed. How the source made its calls: active means survival T/C of 150% or more; inactive means T/C below 125% in these data.

Tested on: BDF1 mice, B16 melanoma ip, median survival T/C
Test: NCI In Vivo Anticancer Drug Screen. Data for tumor model B16 Melanoma (intraperitoneal) in B6D2F1 (BDF1) mice
Details: endpoint: median survival time, higher = longer survival
Summary of the method: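 Read-out: survival or tumor size, given as treated/control ratio. Controls received vehicle only; animals bore transplantable tumors.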

[1] = dose: 25.0 mg/kg/injection, schedule: Q01DX009 (ip), vehicle: Klucel (hydroxypropylcellulose) (HPC)
[2] = dose: 50.0 mg/kg/injection, schedule: Q01DX009 (ip), vehicle: Klucel (hydroxypropylcellulose) (HPC)
[3] = dose: 100.0 mg/kg/injection, schedule: Q01DX009 (ip), vehicle: Klucel (hydroxypropylcellulose) (HPC)
[4] = dose: 100.0 mg/kg/injection, schedule: Q04DX003 (ip), vehicle: Klucel (hydroxypropylcellulose) (HPC)
[5] = dose: 200.0 mg/kg/injection, schedule: Q04DX003 (ip), vehicle: Klucel (hydroxypropylcellulose) (HPC)
[6] = dose: 3.13 mg/kg/injection, schedule: Q01DX009 (ip), vehicle: saline with Tween-80
[7] = dose: 6.25 mg/kg/injection, schedule: Q01DX009 (ip), vehicle: saline with Tween-80
[8] = dose: 12.5 mg/kg/injection, schedule: Q01DX009 (ip), vehicle: saline with Tween-80
[9] = dose: 25.0 mg/kg/injection, schedule: Q01DX009 (ip), vehicle: saline with Tween-80
[10] = dose: 50.0 mg/kg/injection, schedule: Q01DX009 (ip), vehicle: saline with Tween-80
[11] = dose: 100.0 mg/kg/injection, schedule: Q01DX009 (ip), vehicle: saline with Tween-80
[12] = dose: 200.0 mg/kg/injection, schedule: Q01DX009 (ip), vehicle: saline with Tween-80
[13] = dose: 200.0 mg/kg/injection, schedule: Q01DX009 (ip), vehicle: Klucel (hydroxypropylcellulose) (HPC)
[14] = dose: 400.0 mg/kg/injection, schedule: Q01DX009 (ip), vehicle: Klucel (hydroxypropylcellulose) (HPC)
[15] = dose: 0.78 mg/kg/injection, schedule: Q01DX009 (ip), vehicle: saline with Tween-80
[16] = dose: 1.56 mg/kg/injection, schedule: Q01DX009 (ip), vehicle: saline with Tween-80

Measured: T/C

O=[N+]([O-])c1ccc(Oc2cc(Cl)c(Cl)cc2Cl)c([N+](=O)[O-])c1
inactive: [1] 107 % of control | [2] 106 % of control | [3] 99 % of control

O=c1[nH]c(/C=C/c2ccc(Cl)cc2)nc(O)c1-c1ccc(Cl)cc1
inactive: dose: 75.0 mg/kg/injection, schedule: Q04DX003 (ip), vehicle: Klucel (hydroxypropylcellulose) (HPC) 110 % of control | dose: 150.0 mg/kg/injection, schedule: Q04DX003 (ip), vehicle: Klucel (hydroxypropylcellulose) (HPC) 100 % of control | dose: 300.0 mg/kg/injection, schedule: Q04DX003 (ip), vehicle: Klucel (hydroxypropylcellulose) (HPC) 87 % of control

COc1cc(N)c2c(c1N)C(=O)c1ccccc1C2=O
inactive: dose: 50.0 mg/kg/injection, schedule: Q04DX003 (ip), vehicle: Klucel (hydroxypropylcellulose) (HPC) 100 % of control | [4] 103 % of control | [5] 95 % of control

O=[N+]([O-])c1ccc(CSc2ncnc3c2ncn3C2OC(CO)C(O)C2O)cc1 (stereo not given)
inactive: [6] 90 % of control | [7] 90 % of control | [8] 90 % of control | [9] 86 % of control | [10] 86 % of control | [11] 79 % of control | [12] 75 % of control

Nc1ccc(Cl)cc1N
inactive: [8] 104 % of control | [9] 105 % of control | [10] 102 % of control | [11] 99 % of control

Cc1cccc(C)c1NC(=O)C(C)C
inactive: [11] 100 % of control | [12] 102 % of control | dose: 400.0 mg/kg/injection, schedule: Q01DX009 (ip), vehicle: saline with Tween-80 95 % of control

C[C@]12CC[C@H](O)C[C@@H]1CC[C@@H]1[C@@H]2C(=O)C[C@@]2(C)[C@H]1CC[C@]2(O)C(=O)CBr
inactive: [2] 90 % of control | [10] 100 % of control | [3] 93 % of control | [11] 94 % of control | [12] 91 % of control

CCN(CC)C(=O)c1ccc(C(Cl)(Cl)Cl)cc1
inactive: [7] 95 % of control | [8] 98 % of control | [9] 90 % of control and 92 % of control

OCCNCc1ccc(Cl)cc1
inactive: [10] 104 % of control | [11] 109 % of control | [12] 103 % of control

COc1ccc2[nH]c3c(C)c4cc[n+](C)c(C)c4cc3c2c1
inactive: dose: 10.0 mg/kg/injection, schedule: Q04DX003 (ip), vehicle: water 113 % of control | dose: 20.0 mg/kg/injection, schedule: Q04DX003 (ip), vehicle: water 98 % of control | dose: 40.0 mg/kg/injection, schedule: Q04DX003 (ip), vehicle: water 105 % of control | dose: 80.0 mg/kg/injection, schedule: Q04DX003 (ip), vehicle: water 117 % of control

Cc1ccc(NC(=O)CCl)cc1C
inactive: [7] 102 % of control | [8] 100 % of control | [9] 95 % of control | [11] 95 % of control | [12] 95 % of control

Cc1c(Cl)cccc1NC(=O)c1cccc(C(=O)Nc2cccc(Cl)c2C)c1
inactive: [3] 106 % of control | [13] 103 % of control | [14] 93 % of control

CCCCCCCCCCCCCCCC(=O)N(CCCN(CC)CC)C(C)CCCN(CC)CC (stereo not given)
inactive: dose: 0.78 mg/kg/injection, schedule: Q01DX009 (ip), vehicle: water 103 % of control | dose: 1.56 mg/kg/injection, schedule: Q01DX009 (ip), vehicle: Klucel (hydroxypropylcellulose) (HPC) 110 % of control | dose: 1.56 mg/kg/injection, schedule: Q01DX009 (ip), vehicle: water 104 % of control | dose: 3.13 mg/kg/injection, schedule: Q01DX009 (ip), vehicle: Klucel (hydroxypropylcellulose) (HPC) 102 % of control | dose: 3.13 mg/kg/injection, schedule: Q01DX009 (ip), vehicle: water 104 % of control | dose: 6.25 mg/kg/injection, schedule: Q01DX009 (ip), vehicle: Klucel (hydroxypropylcellulose) (HPC) 86 % of control and 97 % of control | dose: 6.25 mg/kg/injection, schedule: Q01DX009 (ip), vehicle: water 90 % of control

COc1cc(NC(=O)CC(C)=O)cc2c(C)cc(=O)n(C)c12
inactive: [3] 96 % of control | [13] 100 % of control | [14] 100 % of control

OC1CCCC2CCCNC12 (stereo not given) (tested in a mixture with another compound)
inactive: [9] 90 % of control | [10] 95 % of control | [11] 86 % of control

COc1cccc(NC(=O)Nc2ccccc2)c1
inactive: [3] 110 % of control | [13] 101 % of control | [14] 88 % of control

CCN(CC)C1CC(O[C@H]2C[C@](O)(C(C)=O)Cc3c(O)c4c(c(O)c32)C(=O)c2c(OC)cccc2C4=O)OC(C)C1O (stereo not given in full)
inactive: dose: 0.25 mg/kg/injection, schedule: Q01DX009 (ip), vehicle: water 113 % of control | dose: 0.5 mg/kg/injection, schedule: Q01DX009 (ip), vehicle: water 119 % of control

Cc1c2cccc(Sc3ccccc3)c2c2c3c(cccc13)[S+](c1ccccc1)C2 (stereo not given)
inactive: [15] 104 % of control | [16] 105 % of control | [6] 102 % of control | [7] 91 % of control and 100 % of control

O=C(O)c1cc2oc3ccccc3c2cc1O
inactive: [2] 116 % of control | [3] 110 % of control

COC(=O)C(CCCN=C(N)N)NC(=O)OCc1ccccc1 (stereo not given)
inactive: dose: 100.0 mg/kg/injection, schedule: Q04DX003 (ip), vehicle: saline 100 % of control | dose: 200.0 mg/kg/injection, schedule: Q04DX003 (ip), vehicle: saline 95 % of control

CC1C[N-]CC(C)C1.CC1C[N-]CC(C)C1.CC1C[N-]CC(C)C1.CC1C[N-]CC(C)C1.[Cl][Rh][Cl] (stereo not given)
inactive: dose: 1.5 mg/kg/injection, schedule: Q01DX009 (ip), vehicle: saline with Tween-80 91 % of control | dose: 3.0 mg/kg/injection, schedule: Q01DX009 (ip), vehicle: saline with Tween-80 107 % of control | dose: 3.0 mg/kg/injection, schedule: Q01DX009 (ip), vehicle: saline 116 % of control | dose: 6.0 mg/kg/injection, schedule: Q01DX009 (ip), vehicle: saline with Tween-80 93 % of control | dose: 6.0 mg/kg/injection, schedule: Q01DX009 (ip), vehicle: saline 116 % of control

Cc1ccc(C(=O)CCCCl)c(C)c1
inactive: [10] 100 % of control | [11] 101 % of control | [12] 108 % of control

O=C1CC(CO)CN1CCc1ccccc1 (stereo not given)
inactive: [4] 110 % of control | [5] 107 % of control | dose: 400.0 mg/kg/injection, schedule: Q04DX003 (ip), vehicle: Klucel (hydroxypropylcellulose) (HPC) 102 % of control

COc1c(C)c2c(c(O)c1C/C=C(\C)CCC(=O)O)C(=O)OC2
inactive: dose: 6.25 mg/kg/injection, schedule: Q01DX009 (ip), vehicle: distilled water + Tween-80 96 % of control | dose: 12.5 mg/kg/injection, schedule: Q01DX009 (ip), vehicle: distilled water + Tween-80 95 % of control | dose: 25.0 mg/kg/injection, schedule: Q01DX009 (ip), vehicle: distilled water + Tween-80 107 % of control | dose: 50.0 mg/kg/injection, schedule: Q01DX009 (ip), vehicle: distilled water + Tween-80 94 % of control | dose: 100.0 mg/kg/injection, schedule: Q01DX009 (ip), vehicle: distilled water + Tween-80 104 % of control | dose: 200.0 mg/kg/injection, schedule: Q01DX009 (ip), vehicle: distilled water + Tween-80 104 % of control

C=CC(=O)N1CN(C(=O)C=C)CN(C(=O)C=C)C1
inactive: [15] 110 % of control | [16] 114 % of control | dose: 3.12 mg/kg/injection, schedule: Q01DX009 (ip), vehicle: saline with Tween-80 116 % of control

NC(=S)N/N=C/c1cc(-c2cccc(N)c2)ccn1
active: dose: 12.5 mg/kg/injection, schedule: Q01DX009 (ip), vehicle: saline 166 % of control | dose: 25.0 mg/kg/injection, schedule: Q01DX009 (ip), vehicle: saline 156 % of control | dose: 37.5 mg/kg/injection, schedule: Q04DX003 (ip), vehicle: saline 166 % of control | dose: 75.0 mg/kg/injection, schedule: Q04DX003 (ip), vehicle: saline 156 % of control | dose: 150.0 mg/kg/injection, schedule: Q04DX003 (ip), vehicle: saline 150 % of control
inactive: [7] 104 % of control and 123 % of control and 124 % of control | [8] 122 % of control | dose: 75.0 mg/kg/injection, schedule: Q01DX009 (ip), vehicle: saline with Tween-80 124 % of control

CN(C)c1ccc2c(SCC(=O)OCC(=O)[C@@]3(O)CC[C@H]4[C@@H]5CCC6=CC(=O)C=C[C@]6(C)[C@H]5C(=O)C[C@@]43C)c3ccc(N(C)C)cc3nc2c1
inactive: [1] 101 % of control | [2] 96 % of control | [3] 101 % of control | [13] 113 % of control | [14] 98 % of control
